Reference: a melting point compilation (Tetko et al.; mined from patent text by program, amines drawn as free bases though some values may be those of a salt)

melting point [°C]	Structure (SMILES)
235 to 238	O=C(O)c1ccc(C(c2ccc(C(=O)O)c([N+](=O)[O-])c2)(C(F)(F)F)C(F)(F)F)cc1[N+](=O)[O-]
135 to 137	COCc1ccc(-c2cn(-c3cc(C(=O)OC)c([N+](=O)[O-])cc3C(F)(F)F)cn2)cc1
111 to 112	COc1cccc2c(Nc3ccccc3C)nccc12
88 to 90	NC(=O)C1(c2ccccc2)CCN(Cc2ccccc2)C1 (configuration not stated)
102	COc1ccc(C(C#N)N(C)C(=O)C(Cl)Cl)cc1OC (configuration not stated)
65 to 66	COC(=O)CC(c1ccc(OC)cc1)N1C(=O)c2ccccc2C1=O (configuration not stated)
> 300	NCc1ccn(-c2cc3c(cc2[N+](=O)[O-])[nH]c(=O)c(=O)n3C2CCCCC2)c1
112 to 114	CON(c1ccc([N+](=O)[O-])cc1[N+](=O)[O-])S(=O)(=O)c1ccccc1Cl
145	CC(C)(C)OC(=O)CN(C(=O)CN1C(=O)c2ccccc2C1=O)c1ccccc1Oc1ccccc1
136	CCCOc1ccc(C(=O)C=CC(=O)O)cc1OC
123	O=C(O)COc1cscc1Cl
80.5 to 82.5	CCCCCS(=O)(=O)NC(=O)/C=C/c1ccc(Oc2ncccn2)cc1Oc1ncc(C(F)(F)F)cc1Cl
129 to 131	O=C(OCc1ccccc1)C1=C(S(=O)c2ccccc2)CC2CC(=O)N12 (configuration not stated)
114 to 116	CSc1cc(SC)c(N)c(SC)c1N
> 275	CC(=O)Nc1ccc(-c2cc(-c3nc4ccccc4c(=O)n3-c3ccccc3)sc2N2CCOCC2)cc1
141	O=C(c1ccc(Cl)cc1)c1cccc([N+](=O)[O-])c1N1CCCCC1
232 to 235	Nc1nc(-n2cc(C(=O)O)c(=O)c3cc(F)c(F)c(Cl)c32)ccc1F
> 300	Cc1ccc(-c2nc(-c3ccncc3)cs2)c(=O)[nH]1
234	CC(=O)Nc1ccc2oc3c(OC(F)F)ccc(C(=O)Nc4c(Cl)cncc4Cl)c3c2c1
155 to 156	CCOCc1nc2c(N)nc3cc(-c4cccnc4)ccc3c2n1C[C@@H]1COC(C)(C)O1
185	O=C(O)c1cc(F)ccc1S
104 to 106	NC1=CC([N+](=O)[O-])C(N)(CC(F)(F)F)C=C1 (configuration not stated)
125 to 126	COc1cccc2c1c1nc3ccccc3cc1n2C(C)=O

melting point [°C]	Structure (SMILES)
79.8 to 80.7	c1ccc(C2NCCc3sccc32)cc1 (configuration not stated)
105 to 115	CN(C)c1cccc2c(S(=O)(=O)NCC(=O)N3CCCC3C(=O)NC(C=O)CCCN(C(=N)N)C(=O)OCc3ccccc3)cccc12 (configuration not stated)
92	C#CCS(=O)c1ncc(Cl)cn1 (configuration not stated)
> 280	CCOC(=O)c1cnc2cc(Br)c(F)cc2c1O
59 to 62	COc1ccc(CCc2ccccn2)cc1OCCCCCc1ccccc1
184	Cc1ccc(-c2cncc(OC3SCC(O)C(O)C3O)c2)cc1C (configuration not stated)
140 to 141	CCOC(=O)/C(=C/c1coc2cc(OC)ccc2c1=O)Cc1cc2c(cc1OC)OCO2
90 to 95	CC(C)(C)OC(=O)N1CCN(CC(O)Cn2c3ccc(Br)cc3c3cc(Br)ccc32)CC1 (configuration not stated)
121 to 123	CN(C)CC#CC1=CC[N+]([O-])=C(c2ccccc2)c2cc(Cl)ccc21
145	CC(C)(C)c1csc(N)c1C(N)=O
189 to 190	C=CCc1cc2c(C)c(Br)c(=O)oc2c(C)c1O
166	O=C(Nc1ccc2cc(CN3CCCC3)cnc2c1)c1ccc(-c2ccccc2)cc1F
155	CC(C)(C)OC(=O)n1c2ccccc2c(=O)n1Cc1cccc(N)c1
136 to 137	Cc1nc2ccccc2n1-c1ccc(I)cc1
235 to 238	NS(=O)(=O)c1cc2c(cc1Cl)NC(c1ccccc1)NS2(=O)=O (configuration not stated)
86 to 87	CC(C)S(=O)(=O)NCC(C)(F)c1ccc(-c2cccc3c2CC(=O)N3)cc1 (configuration not stated)
155	CCCOc1ccc2[nH]c(C(=O)O)cc2c1
186 to 190	CN1C(=O)C(c2ccc(OC(F)F)cc2)(c2cccc(C3CC(O)C3)c2)N=C1N (configuration not stated)
55 to 56	CCCc1c(OCCCOc2ccc(C(=O)OCCCN(C)C)cc2F)ccc(C(C)=O)c1O
161 to 163	O=C(CCCCCl)Nc1nc2ccccc2[nH]1
123	CCOc1ccc(Cc2cc([C@@H]3O[C@H](SC)[C@@H](O)[C@H](O)[C@H]3O)ccc2Cl)cc1
139 to 144	C#Cc1cccc(Oc2nc(Oc3cccc(C#C)c3)nc(-c3ccccc3)n2)c1
135 to 137	CC(C)(C)c1cc(C(=O)c2cccnc2Cl)cc(C(C)(C)C)c1O

melting point [°C]	Structure (SMILES)
168 to 170	Cc1ccc(S(=O)(=O)OC2COc3ccc4ncccc4c3C2)cc1 (configuration not stated)
201 to 203	Cn1c(C(F)(F)F)cc(=O)n(-c2ccc3snc(CCl)c3c2)c1=O
112 to 113	c1ccc(CCN2CCN(c3nc4cccc5c4n3CCC5)CC2)cc1
160 to 162	Cc1c(NC(=O)c2ccc(-c3ccc(Cl)s3)cc2F)ccc2cc(CN3CCCC3)cnc12
90 to 92	Cn1c2ccccc2c2cccc(N)c21
104 to 106	c1ccc2c(CSCc3cccc4ccccc34)cccc2c1
152 to 155	Cn1ncnc1COc1nn2c(-c3ccccc3F)nncc2c1-c1cccc(C(F)(F)F)c1
106 to 108	Fc1ccc(N2CCN(CCCc3cnc4n3CCCC4)CC2)cc1
169 to 170	COc1ccc(Cn2cnc3c(-c4ccco4)ncnc32)cc1C
232 to 234	Cc1oc2ccc(O)cc2c(=O)c1Cc1cccc(NS(=O)(=O)C(F)(F)F)c1
68 to 70	Nc1cnn(-c2cccc(C(F)(F)F)c2)c(=O)c1-c1cccc(C(F)(F)F)c1
170	COc1ccc(NC(=O)C#Cc2ccc(CN3CCCCC3)cc2)cc1
241 to 243	O=c1[nH]c2ccccc2cc1-c1csc(-c2ccncc2)n1
39.5 to 43.2	CON(C)C(=O)c1ccc(Cl)c(Cl)c1
> 265	CNC(=C[N+](=O)[O-])NCc1ccc2c(c1)Nc1nccnc1S2
210 to 211	CN(C(=O)c1cnc(N2CC(C)(C)NC2=O)nc1N)c1cccc(C(F)(F)F)c1
167 to 170	COc1cn(-c2cccc(C(F)(F)F)c2)nc(-n2ccnc2-c2ccccc2)c1=O
252 to 254	CCCCNc1ccc(-c2c(N)nc(N)nc2CC)cc1[N+](=O)[O-]
84	CC(C)(C)CCNC(=O)NCCCl
148 to 150	C[C@H](c1ccncn1)[C@@](O)(CO)c1ccc(F)cc1F
164 to 165	COc1cc(OC)c2c(C)c(CCN3CCN(c4ccccc4O)CC3)c(=O)oc2c1

Structure (SMILES)	melting point [°C]
S=[PH](c1ccccc1)c1ccccc1	134 to 135
CCCCSc1c[nH]nc1C1CN2CCC1CC2 (configuration not stated)	162 to 164
CN1Cc2c(C(=O)NN)ncn2-c2cccc(Cl)c2C1=O	287
CN(Sc1ccc(C(C)(C)C)cc1)C(=O)Oc1cccc2c1OC(C)(C)C2	120 to 123
CC1(C)C(C=CC(=O)O)C1C(=O)OCc1ccccc1 (configuration not stated)	69
